In patent US20080188518A1 (priority 2003, published 2008):

Target: α7 nAChR subtype (Rattus norvegicus, UniProt Q05941)
Format: binding
Details: read-out: KD of radioligand (saturation curves, one site model)

α7 nAChR subtype, sequence (Q05941 23-502 limits assumed): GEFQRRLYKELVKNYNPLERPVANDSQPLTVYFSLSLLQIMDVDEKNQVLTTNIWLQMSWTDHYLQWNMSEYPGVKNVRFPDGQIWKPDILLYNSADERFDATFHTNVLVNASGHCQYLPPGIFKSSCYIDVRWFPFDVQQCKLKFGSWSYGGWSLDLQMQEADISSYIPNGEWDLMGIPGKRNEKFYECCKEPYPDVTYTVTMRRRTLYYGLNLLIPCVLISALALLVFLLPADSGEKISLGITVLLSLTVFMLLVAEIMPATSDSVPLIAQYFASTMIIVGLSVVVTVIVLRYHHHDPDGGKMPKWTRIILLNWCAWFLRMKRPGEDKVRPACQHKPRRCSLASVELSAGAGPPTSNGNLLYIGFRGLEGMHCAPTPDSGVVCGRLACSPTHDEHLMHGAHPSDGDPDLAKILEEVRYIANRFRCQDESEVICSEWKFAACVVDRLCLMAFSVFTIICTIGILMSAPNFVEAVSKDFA

Substance: 125I-α-Bungarotoxin [[^125I]-α-BTX]
- Kd: 1.67 nM
